In patent US12036194B1, “Methods of administering solriamfetol to lactating women” (Axsome Malta Ltd., priority 2022, dated 2024):
Structures can show the parent of a compound that is named as a salt. Where two headings read alike, the source gives them in different places.

Tests used:
[1] = animals tested; cited from earlier work
[2] = Phase 4 open-label single-dose study: pharmacokinetics of solriamfetol in plasma of healthy postpartum women; type: in vivo, human; details: for AUC(0-inf) / AUC(0-t) / Cmax / Vd/F / half-life / Tmax: female, human, po, 150 mg
Protocol: A Phase 4, open-label, single-dose study to evaluate the pharmacokinetics (PK) of solriamfetol in the breast milk and plasma of healthy postpartum women following oral administration of a 150 mg solriamfetol tablet.
The study was conducted in 6 healthy adult lactating women who were between 15 and 37 weeks postpartum and were administered a single oral dose of SUNOSI 150 mg. SUNOSI was excreted in breast milk with a milk to plasma AUC ratio of approximately 2:1. […] The average amount that would be passed to the infant was estimated to be 0.59 mg over 24 hours, which is about 4.0% of the maternal dose on a weight-adjusted basis. The data from the lactation study indicate that SUNOSI is transferred to breastmilk in nursing mothers, with the relative infant dose (RID) is approximately 4% of the maternal weight-adjusted dosage. Data to assess the effects of SUNOSI on a breastfed infant or on milk production is not provided. The developmental and health benefits of breastfeeding should be considered along with the mother's clinical need for SUNOSI and any potential adverse effects on the breastfed child from SUNOSI or from the underlying maternal condition. Breastfed infants should be monitored for adverse reactions, such as agitation, insomnia, anorexia, and reduced weight gain.
On Day −1, eligible subjects underwent the baseline procedures. On Day 1, 2 hours after a light breakfast, subjects were to receive a single dose of solriamfetol 150 mg with 240 mL of water. Subjects had to fast for approximately 4 hours after the first dose; water was allowed except for 1 hour before and 1 hour after dosing with the study drug.
Pharmacokinetic analysis of breast milk obtained from both breasts (by pumping) was evaluated prior to dose administration and at intervals up to 72 hours postdose. Blood samples were also collected for plasma solriamfetol quantitation and PK analysis predose and at timepoints up to 72 hours postdose. Solriamfetol breast milk and plasma concentrations were measured using validated bioanalytical methods. Safety was assessed throughout the study by 12-lead ECG, vital sign measurements, the Columbia-Suicide Severity Rating Scale (C-SSRS), and the incidence of adverse events (AE).
Blood samples for plasma PK evaluation were collected at the following time points: Predose, 1, 1.5, 3, 6, 8.5, 10, 13, 15, 21, 24, 28, 36, 44, and 72 hours following dosing on Day 1. General study methodology is outlined in Table 6.
Serial blood samples (4 mL) were collected and dispensed into labeled K2EDTA tubes. The actual time of blood collection for all samples was recorded on the eCRF. Solriamfetol concentration in breast milk and plasma were determined using a validated bioanalytical method (LC-MS/MS) at Origin Bioanalytical Laboratory. The analytical range (lower limit of quantitation [LLOQ] to upper limit of quantitation) for plasma solriamfetol was 8.42 to 4210.00 ng/mL, and breast milk solriamfetol was 10.0 to 8000 ng/mL.
Pharmacokinetic parameters were derived with Phoenix® WinNonlin® Version 8.3 (Certara, Inc., Princeton, New Jersey, USA) and/or SAS© Version 9.4 (SAS Institute, Inc., Cary, North Carolina, USA).
Pharmacokinetic concentrations and parameters were summarized using descriptive statistics, including n, arithmetic mean, SD, coefficient of variation (CV %), median, min, max, Geometric mean (Geo-mean) and the geometric coefficient of variation (Geo-CV %). For the PK parameter tmax, only n, median, minimum, and maximum was presented.

[3] = Sunosi label, cited from earlier work
[4] = rats; breast milk; cited from earlier work
[5] = cited from earlier work
[6] = single oral 150 mg solriamfetol tablet, N = 6
[7] = single oral 150 mg solriamfetol tablet, N = 6, hydrochloride
[8] = single oral 150 mg solriamfetol tablet, N = 6, listed as solriamfetol, hydrochloride
[9] = healthy male and female patients not postpartum

## NC(=O)OC[C@H](N)Cc1ccccc1 [Solriamfetol, (R)-2-amino-3-phenylpropyl carbamate (APC) hydrochloride]
[1]
  absorption and oral bioavailability: rapid absorption and high oral bioavailability
  exposure (maximum serum concentration and AUC) versus dose: dose-proportional exposure
[2]; single oral 150 mg solriamfetol tablet, N = 6, read-out: AUC0-inf, Geometric Mean
  AUC(0-inf): 6340 ng·h/mL
[2]; single oral 150 mg solriamfetol tablet, N = 6, read-out: AUC0-t, Arithmetic Mean (CV %)
  AUC(0-t): 6440 ng·h/mL
[2]; single oral 150 mg solriamfetol tablet, N = 6, read-out: AUC0-t, Geometric Mean
  AUC(0-t): 6240 ng·h/mL
[2]; single oral 150 mg solriamfetol tablet, N = 6, read-out: Cmax, Arithmetic Mean (CV %)
  Cmax: 905 ng/mL
[2]; single oral 150 mg solriamfetol tablet, N = 6, read-out: Cmax, Geometric Mean
  Cmax: 892 ng/mL
[2]; single oral 150 mg solriamfetol tablet, N = 6, read-out: Vz/F, Arithmetic Mean (CV %)
  Vd/F: 169 L
[2]; single oral 150 mg solriamfetol tablet, N = 6, read-out: Vz/F, Geometric Mean
  Vd/F: 162 L
[2]; single oral 150 mg solriamfetol tablet, N = 6, read-out: t1/2, Arithmetic Mean (CV %) (converted)
  half-life: 288 min
[2]; single oral 150 mg solriamfetol tablet, N = 6, read-out: t1/2, Geometric Mean (converted)
  half-life: 285 min
[2]; single oral 150 mg solriamfetol tablet, N = 6, read-out: tmax, Median (min, max)
  Tmax: 1.25 h
[2]; single oral 150 mg solriamfetol tablet, healthy postpartum women N = 6, read-out: AUC0-inf, Arithmetic Mean (CV %)
  AUC(0-inf): 6540 ng·h/mL
[2]; single oral 150 mg, read-out: t1/2 (approximate) (converted)
  half-life: ~300 min
[2]; single oral 150 mg, read-out: tmax range
  Tmax: 1 to 3 h
[2]; [6]
  CL/F, Geometric Mean: 23.66 L/h
  Lambda_z, Arithmetic Mean (CV %): 0.1478 (19.1) 1/h
  Lambda_z, Geometric Mean: 0.1459 h⁻¹
[2]; [7]
  CL/F, Arithmetic Mean (CV %): 24.40 (26.8) L/h
  t1/2, Arithmetic Mean (CV %): 4.804 (15.2) h
[2]; [8]
  CL/F, Arithmetic Mean (CV %): 24.40 L/h
  tmax, Median (min, max): 1 h
[3]; [9]
  apparent mean elimination plasma half-life: 7.1 h
  oral bioavailability: approximately 95%
[3]; post-dose under fasted conditions, not postpartum
  median Tmax of peak plasma concentration: 2 h
[4]
  solriamfetol milk concentrations versus plasma concentrations: higher than
[5]; fed versus fasted
  PK in fed versus fasted subjects: satisfied the criteria for bioequivalence
[5]; in vivo
  systemic elimination half-life: 5.0 to 7.6 h
[5]; once daily dosing
  estimated accumulation ratio: 1.06
